Assay results taken from patent publication US20120029187A1, “HALOALKYLSULFONANILIDE DERIVATIVE” (Nissan Chemical Industries, Ltd., priority 2009, published 2012).

What was measured:
Type in all cases: in vivo
barnyardgrass [1] = experiment: Test Example 2: herbicidal effects during the vegetation period under submerged conditions; settings: treatment during the vegetation period under submerged conditions; dose 2.52 g/a
Method in brief: (§1)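 Barnyardgrass, bulrush and ducksalad were co-sown in alluvial soil flooded to 4 cm and grown in a greenhouse at 25 to 30° C. At the 1- or 2-leaf stage, water-diluted emulsifiable concentrates went onto the water surface at set doses (g/a). Herbicidal effect was scored three weeks later on a graded scale.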

bulrush [2] = experiment: as above; settings: treatment during the vegetation period under submerged conditions; dose 2.52 g/a
Method in brief: as §1

ducksalad [3] = experiment: as above; settings: treatment during the vegetation period under submerged conditions; dose 2.52 g/a
Method in brief: as §1

barnyardgrass [4] = experiment: Test Example 1: herbicidal effects in preemergence treatment under submerged conditions; settings: dose 2.52 g/a
Method in brief: (§2)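 Score 0–5 by mortality (5: ≥90%; 0: <5%), read 3 weeks post-application. Paddy-type cups: alluvial soil under 4 cm water, weeds seeded plus transplanted 2.5-leaf rice; diluted EC dosed onto water surface same day as sowing, g/a basis; greenhouse 25 to 30° C.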

bulrush [5] = experiment: as above; settings: dose 2.52 g/a
Method in brief: as §2

ducksalad [6] = experiment: as above; settings: dose 2.52 g/a
Method in brief: as §2

common ragweed [7] = experiment: Test Example 3: herbicidal effects in soil treatment; settings: dose 3.2 g/a
Method in brief: (§3)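 Seeds were sown in sterilized diluvial soil and covered with about 1.5 cm of soil. Compounds, formulated as emulsifiable concentrates and diluted with water, were sprayed evenly over the soil surface at set doses in g/a. Herbicidal effect was scored on a rating scale three weeks later.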

barnyardgrass [8] = experiment: as above; settings: dose 3.2 g/a
Method in brief: as §3

giant foxtail [9] = experiment: as above; settings: dose 3.2 g/a
Method in brief: as §3

wild oat [10] = experiment: as above; settings: dose 3.2 g/a
Method in brief: as §3

velvetleaf [11] = experiment: as above; settings: dose 3.2 g/a
Method in brief: as §3

redroot pigweed = experiment: as above; settings: dose 3.2 g/a
Method in brief: as §3

water foxtail [12] = experiment: as above; settings: dose 3.2 g/a
Method in brief: as §3

Italian ryegrass [13] = experiment: as above; settings: dose 3.2 g/a
Method in brief: as §3

large crabgrass [14] = experiment: as above; settings: dose 3.2 g/a
Method in brief: as §3

common lambsquater [15] = experiment: as above; settings: dose 3.2 g/a
Method in brief: as §3

transplanted rice = experiment: Test Example 1: preemergence treatment under submerged conditions, effect on crop; settings: dose 2.52 g/a
Method in brief: as §2

common ragweed [16] = experiment: Test Example 4: herbicidal effect in foliage treatment; settings: dose 3.2 g/a, three weeks after the application
Method in brief: (§4)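 Foliar spray, post-emergence: 14-day-old greenhouse plants (25–30° C, diluvial soil) treated with water-diluted EC at set g/a doses; visual herbicidal score at 3 wk post-application.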

beadstraw = experiment: as above; settings: dose 3.2 g/a, three weeks after the application
Method in brief: as §4

barnyardgrass [17] = experiment: as above; settings: dose 3.2 g/a, three weeks after the application
Method in brief: as §4

giant foxtail [18] = experiment: as above; settings: dose 3.2 g/a, three weeks after the application
Method in brief: as §4

wild oat [19] = experiment: as above; settings: dose 3.2 g/a, three weeks after the application
Method in brief: as §4

velvetleaf [20] = experiment: as above; settings: dose 3.2 g/a, three weeks after the application
Method in brief: as §4

water foxtail [21] = experiment: as above; settings: dose 3.2 g/a, three weeks after the application
Method in brief: as §4

Italian ryegrass [22] = experiment: as above; settings: dose 3.2 g/a, three weeks after the application
Method in brief: as §4

large crabgrass [23] = experiment: as above; settings: dose 3.2 g/a, three weeks after the application
Method in brief: as §4

posumbu knotweed = experiment: as above; settings: dose 3.2 g/a, three weeks after the application
Method in brief: as §4

common lambsquater [24] = experiment: as above; settings: dose 3.2 g/a, three weeks after the application
Method in brief: as §4

## O=C1CCCON1Cc1ccccc1NS(=O)(=O)C(F)(F)F [III-12]
Barnyardgrass [1]
  A: barnyardgrass, herbicidal effect (evaluation scale 0-5): 5 (mortality of 90% or above (nearly complete death))
Bulrush [2]
  B: bulrush, herbicidal effect (evaluation scale 0-5): 5 (mortality of 90% or above (nearly complete death))
Ducksalad [3]
  C: ducksalad, herbicidal effect (evaluation scale 0-5): 5 (mortality of 90% or above (nearly complete death))
Barnyardgrass [4]
  A: barnyardgrass, herbicidal effect (evaluation scale 0-5): 5 (mortality of 90% or above (nearly complete death))
Bulrush [5]
  B: bulrush, herbicidal effect (evaluation scale 0-5): 5 (mortality of 90% or above (nearly complete death))
Ducksalad [6]
  C: ducksalad, herbicidal effect (evaluation scale 0-5): 5 (mortality of 90% or above (nearly complete death))
Common ragweed [7]
  herbicidal effect, J: common ragweed: 5 (mortality of 90% or above (nearly complete death))
Barnyardgrass [8]
  herbicidal effect, A: barnyardgrass: 5 (mortality of 90% or above (nearly complete death))
Giant foxtail [9]
  herbicidal effect, E: giant foxtail: 5 (mortality of 90% or above (nearly complete death))
Wild oat [10]
  herbicidal effect, F: wild oat: 2 (mortality of at least 20% and less than 40%)
Velvetleaf [11]
  herbicidal effect, I: velvetleaf: 5 (mortality of 90% or above (nearly complete death))
Redroot pigweed
  herbicidal effect, K: redroot pigweed: 0 (mortality of less than 5% (almost ineffective))
Water foxtail [12]
  herbicidal effect, G: water foxtail: 5 (mortality of 90% or above (nearly complete death))
Italian ryegrass [13]
  herbicidal effect, H: Italian ryegrass: 3 (mortality of at least 40% and less than 70%)
Large crabgrass [14]
  herbicidal effect, D: large crabgrass: 5 (mortality of 90% or above (nearly complete death))
Common lambsquater [15]
  herbicidal effect, L: common lambsquater: 0 (mortality of less than 5% (almost ineffective))
Transplanted rice
  a: transplanted rice, effect on crop (evaluation scale 0-5): 2 (mortality of at least 20% and less than 40%)
Common ragweed [16]
  J: common ragweed, herbicidal effect: 4 (mortality of at least 70% and less than 90%)
beadstraw
  O: beadstraw, herbicidal effect: 4 (mortality of at least 70% and less than 90%)
Barnyardgrass [17]
  A: barnyardgrass, herbicidal effect: 5 (mortality of 90% or above (nearly complete death))
Giant foxtail [18]
  E: giant foxtail, herbicidal effect: 3 (mortality of at least 40% and less than 70%)
Wild oat [19]
  F: wild oat, herbicidal effect: 0 (mortality of less than 5% (almost ineffective))
Velvetleaf [20]
  I: velvetleaf, herbicidal effect: 5 (mortality of 90% or above (nearly complete death))
Water foxtail [21]
  G: water foxtail, herbicidal effect: 5 (mortality of 90% or above (nearly complete death))
Italian ryegrass [22]
  H: Italian ryegrass, herbicidal effect: 3 (mortality of at least 40% and less than 70%)
Large crabgrass [23]
  D: large crabgrass, herbicidal effect: 5 (mortality of 90% or above (nearly complete death))
Posumbu knotweed
  M: posumbu knotweed, herbicidal effect: 0 (mortality of less than 5% (almost ineffective))
Common lambsquater [24]
  L: common lambsquater, herbicidal effect: 0 (mortality of less than 5% (almost ineffective))
